Values joined by “and” are separate entries in the source; they are usually repeats but may differ in a detail not shown here. Equal values may be shown once.
Tests used:
[1] = Plasma concentrations of DM after oral DM with or without quinidine (HPLC); type: in vivo, human; conditions: blood sampled 10-12 hours later, per volunteer
Experimental: Five patients with a symptom of having premature ejaculation were orally administered 120 mg of DM, with no co-administration of quinidine. Between 10 and 12 hours later, blood was sampled, blood plasma was isolated by centrifugation, and the plasma was analyzed to determine the DM concentration using the HPLC method. During a different week, the same patients were orally administered 60 mg of DM (half the control dosage) and 150 mg of quinidine. Between 10 and 12 hours later, blood was sampled and the plasma was analyzed for DM using thebaine/HPLC. The results, in Table 1, indicate that quinidine causes a major increase in the concentration of DM in the blood plasma.

cyclooxygenase-2 (COX-2) = cyclooxygenase-2 (COX-2) (Homo sapiens, UniProt P35354); conditions: cited from earlier work
[2] = oral administration, Viagra formulation; cited from earlier work
[3] = target: phosphodiesterase type 5 (PDE5) (Homo sapiens, UniProt O76074); conditions: in vitro; PDE5 vs PDE6; cited from earlier work

cyclooxygenase-2 (COX-2), sequence (P35354 18-604, species assumed): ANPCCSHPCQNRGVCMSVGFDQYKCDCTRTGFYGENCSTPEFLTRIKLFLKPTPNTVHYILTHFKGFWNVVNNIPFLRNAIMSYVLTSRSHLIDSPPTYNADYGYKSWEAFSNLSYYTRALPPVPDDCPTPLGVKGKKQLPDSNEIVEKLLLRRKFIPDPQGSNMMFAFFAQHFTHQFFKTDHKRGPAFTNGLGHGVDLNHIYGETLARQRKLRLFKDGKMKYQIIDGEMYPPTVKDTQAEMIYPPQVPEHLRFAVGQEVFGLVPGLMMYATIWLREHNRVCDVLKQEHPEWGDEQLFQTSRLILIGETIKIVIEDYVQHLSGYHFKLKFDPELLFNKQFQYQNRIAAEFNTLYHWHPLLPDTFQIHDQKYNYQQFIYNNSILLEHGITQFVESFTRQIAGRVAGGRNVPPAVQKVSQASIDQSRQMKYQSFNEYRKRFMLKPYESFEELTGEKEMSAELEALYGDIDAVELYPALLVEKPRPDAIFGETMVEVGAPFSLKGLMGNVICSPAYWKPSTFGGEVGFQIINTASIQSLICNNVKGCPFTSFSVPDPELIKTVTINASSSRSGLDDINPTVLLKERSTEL

COc1ccc2c(c1)[C@@]13CCCC[C@H]1[C@@H](C2)N(C)CC3 [DM, (+)-3-methoxy-N-methylmorphinan]
PLASMA CONCENTRATION of DM ([1]; 60 mg DM + 150 mg quinidine oral): 34.2 ng/mL and 42.4 ng/mL and 30.2 ng/mL and 26.8 ng/mL and 10.2 ng/mL | PLASMA CONCENTRATION of DM ([1]; 120 mg DM oral, quinidine 0 mg): 13.5 ng/mL and 15.4 ng/mL and <1 ng/mL (2×) and 5.7 ng/mL

CS(=O)(=O)c1ccc(C2=C(c3ccccc3)C(=O)OC2)cc1 [rofecoxib]
specificity for inhibiting COX-2 (over COX-1) (cyclooxygenase-2 (COX-2)): about 350 fold

CCCc1nn(C)c2c(=O)[nH]c(-c3cc(S(=O)(=O)N4CCN(C)CC4)ccc3OCC)nc12 [sildenafil, 1-[[3-(6,7-dihydro-1-methyl-7-oxo-3-propyl-1H-pyrazolo[4,3-d]pyrimidin-5-yl)-4-ethoxyphenyl]sulfonyl]-4-methyl piperazine]
absolute bioavailability [2]: about 40% | potency for PDE5 compared to PDE6 [3]: about 10 fold

From patent US7754767B2, “Method for treatment of premature ejaculation in humans” (Trinity Laboratories, Inc., priority 2002, dated 2010)
